Source: patent US20090304663A1, “USE OF GSK-3 INHIBITORS FOR THE TREATMENT OF PROSTATE CANCER” (IMPERIAL INNOVATIONS LIMITED, priority 2004, published 2009)
“Also recorded” adds a separate entry of the source. Where two headings read alike, the source gives them in different places.

Tests used:
[1] = system: panel of 79 commonly studied protein kinases, including several PKC isozymes; settings: in words; cited from earlier work
human GSK-3 = settings: cited from earlier work
[2] = system: AR transcriptional activity; experiment: AR transcriptional activity, MMTV-Luciferase reporter in CWR-R1 cells; format: cell-based
CWR-R1 cells = experiment: cell growth assay, CWR-R1 cells; format: cell-based; settings: for CWR-R1 cell growth (number of cells): 5 μM SB216763 or 20 μM SB415286, up to 6 days
Experimental: (a) CWR-R1 cells were grown in the presence of carrier (ut). […] The experiment was done twice in triplicate and the error bars indicate standard deviation. […] The experiment was done in triplicate and the error bars indicate standard deviation. […] The number of cells was counted after 72 h (or after 5 days for LNCaP cells). Experiments were done in triplicate and the error bars indicate standard deviation. […] Cell growth assays were conducted according to Gregory et al, (2001). Briefly, cells (1.5×10^5/well) were plated in 12-well plates (three wells were used for each condition) and allowed to attach overnight. […] Cells were collected by trypsinisation at the indicated times and were counted using a Coulter Counter or using a haemocytometer.

[3] = system: β-catenin/Tcf transcriptional activity; experiment: β-catenin/Tcf transcriptional activity, pOT-Luciferase reporter in CWR-R1 cells; format: cell-based; settings: 20 μM SB415286 or 5 μM SB216763, 24 h, normal growth medium
22Rv1 cells = experiment: cell growth assay, 22Rv1 cells; format: cell-based
DU145 cells = experiment: cell growth assay, DU145 cells; format: cell-based; settings: 5 μM SB216763, normal growth medium, 72 h
Experimental: (§1) The number of cells was counted after 72 h (or after 5 days for LNCaP cells). Experiments were done in triplicate and the error bars indicate standard deviation. […] Cell growth assays were conducted according to Gregory et al, (2001). Briefly, cells (1.5×10^5/well) were plated in 12-well plates (three wells were used for each condition) and allowed to attach overnight. […] Cells were collected by trypsinisation at the indicated times and were counted using a Coulter Counter or using a haemocytometer.

AR protein = AR protein level by western blotting in CWR-R1 cells; format: cell-based; settings: 5 μM SB216763 or 20 μM SB415286, 24 h, western blot
Experimental: FIG. 6: Inhibition of GSK-3 leads to a reduction in AR protein levels. […] Western blots of whole cell extracts were probed for AR (upper panels) and reprobed for γ-tubulin as an internal loading control (lower panels).
Cells were grown to 50-70% confluence in 100 mm dishes or 6-well plates. Lysates were obtained using the following steps: Cells were rinsed in cold TBS, lysed in modified RIP A buffer (0.5% deoxycholate, 1% Triton X-100, 20 mM Tris pH 8.0, 0.1% SDS, 100 mM NaCl, 50 mM NaF) or Nonidet P-40 buffer (1% NP-40, 20 mM Tris pH 8.0, 150 mM NaCl, 50 mM NaF) for 10 min and centrifuged for 12 min at 15,000×g. Cell extracts were then mixed with an equal volume of SDS sample buffer (Sigma Aldrich) and heated to 95° C. for 3 min. For immunoprecipitation (IP) assays in transfected COS7 cells, cell extracts were prepared using NP-40 lysis buffer, incubated with primary antibody for 1 h on ice. This was followed by 30 min incubation with 20 μl protein A/G-agarose (Cambridge Biosciences) on a rotating wheel in the cold room. After 4 washes in lysis buffer and 1 wash in TBS, the beads were resuspended in 10 μl of SDS sample buffer and heated as above. […]

LNCaP cells = experiment: cell growth assay, LNCaP cells; format: cell-based; settings: 5 μM SB216763, hormone-depleted medium with 1 nM R1881, 5 days
Experimental: as §1

PC3 cells = experiment: cell growth assay, PC3 cells; format: cell-based; settings: 5 μM SB216763, normal growth medium, 72 h
Experimental: as §1

GSK-3 = settings: cited from earlier work
[4] = system: inositol monophosphatases; settings: in words; cited from earlier work
[5] = CWR-R1 cells, 10 nM R1881, 20 μM SB415286 or 5 μM SB216763, 24 h

## O=C1NC(=O)C(c2cn(CCCO)c3ncccc23)=C1c1cnccn1 [3-(1-(3-Hydroxypropyl)-1H-pyrrolo[2,3-b]pyridin-3-yl]-4-pyrazin-2-yl-pyrrole-2,5-dione]
[1]
  inhibition of the kinase panel: minimally inhibits

## Cn1cc(C2=C(c3ccc(Cl)cc3Cl)C(=O)NC2=O)c2ccccc21 [SB216763]
[2]; [5]
  AR transcriptional activity: reduced
CWR-R1 cells; 5 μM SB216763, normal growth medium, 72 h
  growth of CWR-R1 cells (number of cells): significantly reduced
CWR-R1 cells
  CWR-R1 cell growth (number of cells): repressed
CWR-R1 cells; CWR-R1 cells, 72 h, complete growth medium
  concentration at which inhibitory effects on cell growth were maximal (optimal dose): 3 µM
[3]
  β-catenin/Tcf-dependent transcriptional activity: increased
22Rv1 cells; 5 μM SB216763, hormone-depleted medium with 1 nM R1881, 72 h
  growth of 22Rv1 cells (number of cells): significantly reduced
22Rv1 cells; 5 μM SB216763, hormone-depleted medium with R1881, 72 h
  R1881-stimulated growth of 22Rv1 cells: blocked
22Rv1 cells; 5 μM SB216763, hormone-depleted medium, absence of hormone, 72 h
  hormone-independent proliferation of 22Rv1 cells: inhibited
DU145 cells
  DU145 cell growth (number of cells): did not significantly affect
AR protein
  protein level of AR: reduced
LNCaP cells
  growth of LNCaP cells (number of cells): significantly reduced; also recorded: weakly inhibited
PC3 cells
  PC3 cell growth (number of cells): did not significantly affect

## O=C1NC(=O)C(c2ccccc2[N+](=O)[O-])=C1Nc1ccc(O)c(Cl)c1 [SB415286]
[2]; [5]
  AR transcriptional activity: reduced
CWR-R1 cells
  CWR-R1 cell growth (number of cells): repressed
CWR-R1 cells; up to 50 μM, data not shown
  dose dependence of inhibitory effects on CWR-R1 cell growth: increased with dose up to the maximal dose tested
AR protein
  protein level of AR: reduced

## C[C@]1(O)CC[C@H]2[C@@H]3CCC4=CC(=O)CCC4=C3C=C[C@@]21C [R1881, methyltrienolone]
[2]
  AR transcriptional activity: increase
22Rv1 cells; hormone-depleted medium, 10^−12 M or 10^−9 M R1881, 72 h
  growth of 22Rv1 cells: stimulated

## Cc1cc(Nc2nc(-c3ccccc3)nc3ccccc23)n[nH]1 [5-Methyl-1H-pyrazol-3-yl)-(2-phenylquinazolin-4-yl)amine]
GSK-3; ATP-binding site inhibitor
  Ki: 24 nM

## CHIR 98014
Human GSK-3
  Ki: 0.87 nM

## [Cl-].[Li+] [Lithium chloride, lithium chloride]
GSK-3; in words
  IC50 value: high
[4]
  inhibition of inositol monophosphatases relative to GSK-3: to a similar extent
